Experimental data published in patent US11033527B2, “Non-hormonal treatment of the genitourinary syndrome of menopause” (IMMUGEN PHARMA LLC, priority 2018, dated 2021).
“And” between values parts separate entries of the source, which are not always exact repeats. Equal values may be shown once.

Key:
vaginal tissue construct = assay: microarray analysis of differential gene expression (Affymetrix Human Gene 1.0 ST arrays), tissues treated for seven days via culture medium; format: cell-based
Excerpt: The data from the Affymetrix Human Gene 1.0 ST arrays were normalized using the Robust Multiarray Average (RMA) algorithm and a Chip Definition File (CDF) that maps the probes on the array to unique Entrez Gene identifiers. The result is a matrix in which each column corresponds to a sample. The expression values are log 2-transformed by default.
By using a fold change >1.5, an analysis of differentially expressed genes was done to identify those genes which were involved in the cornified envelope, keratinocyte differentiation, cell differentiation, epidermis development, epithelial cell differentiation, junctional proteins and signaling, immune response and innate immune response.

[1] = target: endocannabinoid receptor type 2 (CB2) (Homo sapiens, UniProt P34972); settings: cited from earlier work
endocannabinoid receptor type 2 (CB2), sequence (P34972 whole entry, species assumed): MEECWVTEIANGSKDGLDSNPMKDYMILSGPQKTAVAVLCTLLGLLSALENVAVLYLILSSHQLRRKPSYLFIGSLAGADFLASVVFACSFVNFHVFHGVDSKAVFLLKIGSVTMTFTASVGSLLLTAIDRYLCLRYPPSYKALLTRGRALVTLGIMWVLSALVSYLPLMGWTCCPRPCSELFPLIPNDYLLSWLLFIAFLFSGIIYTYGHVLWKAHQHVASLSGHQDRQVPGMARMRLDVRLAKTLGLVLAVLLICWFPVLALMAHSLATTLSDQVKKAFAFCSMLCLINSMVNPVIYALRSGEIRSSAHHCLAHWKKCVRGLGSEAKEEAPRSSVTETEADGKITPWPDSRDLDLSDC

[2] = down-regulated by this fold, given without sign

CCCC(C)(C)c1ccc2c(c1)OC(C)(C)[C@@H]1CC=C(C)C[C@@H]21 [JWH-133]
SPRR2D Fold Change (vaginal tissue construct): 2.839 fold
WFDC12 Fold Change (vaginal tissue construct): 5.534 fold
CFB down-regulation (vaginal tissue construct; [2]): 2.167 fold
CFH down-regulation (vaginal tissue construct; [2]): 1.681 fold
AGR2 Fold Change (vaginal tissue construct; gene Anterior gradient homolog 2 (Xenopus laevis)): −2.5 fold
CXCL8 Expr Fold Change (vaginal tissue construct; gene C-X-C motif chemokine ligand 8): −2.155 fold
CXCL17 Expr Fold Change (vaginal tissue construct; gene C-X-C motif chemokine ligand 17): −1.881 fold
CXCR2 Expr Fold Change (vaginal tissue construct; gene C-X-C motif chemokine receptor 2): 2.121 fold
CD14 Expr Fold Change (vaginal tissue construct; gene CD14 molecule): −2.286 fold
CD74 Expr Fold Change (vaginal tissue construct; gene CD74 molecule): −1.676 fold
CD151 Expr Fold Change (vaginal tissue construct; gene CD151 molecule (Raph blood group)): −1.653 fold
CD244 Expr Fold Change (vaginal tissue construct; gene CD244 molecule): 2.489 fold
CDSN Fold Change (vaginal tissue construct; gene Corneodesmosin): 6.888 fold
CCL28 Expr Fold Change (vaginal tissue construct; gene C−C motif chemokine ligand 28): −2.39 fold
FYB1 Expr Fold Change (vaginal tissue construct; gene FYN binding protein 1): −2.398 fold
IFNE Fold Change (vaginal tissue construct; gene Interferon Epsilon): 4.439 fold
IL19 Fold Change (vaginal tissue construct; gene Interleukin 19): −2.2 fold
NLRP10 Fold Change (vaginal tissue construct; gene NLR family pyrin domain containing 10): 10.11 fold
RNAse7 Fold Change (vaginal tissue construct; gene RNAse family): 6.145 fold
TIAM1 Expr Fold Change (vaginal tissue construct; gene T cell lymphoma invasion and metastasis 1): 2.018 fold
TNFAIP8 Expr Fold Change (vaginal tissue construct; gene TNF alpha induced protein 8): −1.724 fold
TNFRSF10C Expr Fold Change (vaginal tissue construct; gene TNF receptor superfamily member 10c): −2.114 fold
TNFRSF11B Expr Fold Change (vaginal tissue construct; gene TNF receptor superfamily member 11b): −2.006 fold
TSPAN1 Fold Change (vaginal tissue construct; gene Tetraspanin 1): −1.9 fold
TGM1 Fold Change (vaginal tissue construct; gene Transglutaminase 1): 1.809 fold
TGM3 Fold Change (vaginal tissue construct; gene Transglutaminase 3): 23.784 fold and 24 fold
TGM5 Fold Change (vaginal tissue construct; gene Transglutaminase 5): 2.346 fold
TRIM31 Fold Change (vaginal tissue construct; gene Tripartite motif-containing 31): −4.5 fold
VTCN1 Expr Fold Change (vaginal tissue construct; gene V-set domain containing T cell activation inhibitor 1): −2.694 fold
WFDC2 Fold Change (vaginal tissue construct; gene WAP four-disulfide core domain 2): −2.6 fold
WFDC5 Fold Change (vaginal tissue construct; gene WAP four-disulfide core domain 5): 2.807 fold
ALOX12B Fold Change (vaginal tissue construct; gene arachidonate 12-lipoxygenase, 12R type): 6.023 fold
ALOX12 Fold Change (vaginal tissue construct; gene arachidonate 12-lipoygenase): 1.8 fold
ALOXE3 Fold Change (vaginal tissue construct; gene arachidonate lipoxygenase 3): 2.881 fold
ASS1 Fold Change (vaginal tissue construct; gene arginosuccinate synthetase 1): −2.4 fold
CLDN17 Fold Change (vaginal tissue construct; gene claudin 17): 8.7 fold
CCDC59 Expr Fold Change (vaginal tissue construct; gene coiled-coil domain containing 59): −1.956 fold
CSF2RB Expr Fold Change (vaginal tissue construct; gene colony stimulating factor 2 receptor beta common subunit): 2.595 fold
CFH Expr Fold Change (vaginal tissue construct; gene complement factor H): −1.681 fold
CNFN Fold Change (vaginal tissue construct; gene cornifelin): 1.706 fold
CRCT1 Fold Change (vaginal tissue construct; gene cysteine-rich C-terminal 1): 2.3 fold
DMKN Fold Change (vaginal tissue construct; gene dermokine): 2.043 fold
DCS3 Fold Change (vaginal tissue construct; gene descmocollin 3): 1.5 fold
DSC1 Fold Change (vaginal tissue construct; gene desmocollin 1): 6.69 fold
DSC2 Fold Change (vaginal tissue construct; gene desmocollin 2): 1.6 fold
DSG1 Fold Change (vaginal tissue construct; gene desmoglein 1): 7.572 fold and 7.2 fold
FLG Fold Change (vaginal tissue construct; gene filaggrin): 3.151 fold
FLG2 Fold Change (vaginal tissue construct; gene filaggrin family member 2): 6.801 fold
GYS2 Fold Change (vaginal tissue construct; gene glycogen synthase 2 (liver)): 3.1 fold
KPRP Fold Change (vaginal tissue construct; gene human keratinocyte proline rich protein): 17.392 fold and 20.8 fold
IFIT5 Expr Fold Change (vaginal tissue construct; gene interferon induced protein with tetratricopeptide repeats 5): −1.97 fold
IFIH1 Expr Fold Change (vaginal tissue construct; gene interferon induced with helicase C domain 1): −2.099 fold
IRF1 Expr Fold Change (vaginal tissue construct; gene interferon regulatory factor 1): −3.083 fold
IRF9 Expr Fold Change (vaginal tissue construct; gene interferon regulatory factor 9): −1.62 fold
IL1RL2 Expr Fold Change (vaginal tissue construct; gene interleukin 1 receptor like 2): 2.54 fold
IL7R Expr Fold Change (vaginal tissue construct; gene interleukin 7 receptor): −2.062 fold
IL18BP Expr Fold Change (vaginal tissue construct; gene interleukin 18 binding protein): 1.523 fold
IL23A Expr Fold Change (vaginal tissue construct; gene interleukin 23 subunit alpha): 2.346 fold
IL33 Expr Fold Change (vaginal tissue construct; gene interleukin 33): −3.314 fold
IL36A Expr Fold Change (vaginal tissue construct; gene interleukin 36 alpha): 4.253 fold
IL36RN Expr Fold Change (vaginal tissue construct; gene interleukin 36 receptor antagonist): 4.029 fold
KLK6 Fold Change (vaginal tissue construct; gene kallikrein related peptidase 6): 4.063 fold
KLK8 Fold Change (vaginal tissue construct; gene kallikrein related peptidase 8): 1.504 fold
KLK10 Fold Change (vaginal tissue construct; gene kallikrein related peptidase 10): 2.214 fold
KLK12 Fold Change (vaginal tissue construct; gene kallikrein related peptidase 12): 3.882 fold
KLK13 Fold Change (vaginal tissue construct; gene kallikrein related peptidase 13): 3.278 fold
KRT1 Fold Change (vaginal tissue construct; gene keratin 1): 7.122 fold and 8.7 fold
KRT2 Fold Change (vaginal tissue construct; gene keratin 2): 1.764 fold
KRT20 Fold Change (vaginal tissue construct; gene keratin 20): −2.992 fold
KRT23 Fold Change (vaginal tissue construct; gene keratin 23): 1.631 fold
KRT24 Fold Change (vaginal tissue construct; gene keratin 24): 1.699 fold
KRTDAP Fold Change (vaginal tissue construct; gene keratinocyte differentiation associated protein): 9.891 fold and 10.1 fold
LCE1A Fold Change (vaginal tissue construct; gene late cornified envelope 1A): 1.526 fold
LCE1C Fold Change (vaginal tissue construct; gene late cornified envelope 1C): 2.292 fold
LCE1F Fold Change (vaginal tissue construct; gene late cornified envelope 1F): 1.576 fold
LCE2A Fold Change (vaginal tissue construct; gene late cornified envelope 2A): 4.097 fold
LCE2B Fold Change (vaginal tissue construct; gene late cornified envelope 2B): 7.398 fold
LCE2C/LCE2D Fold Change (vaginal tissue construct; gene late cornified envelope 2D): 10.393 fold
LCE3D Fold Change (vaginal tissue construct; gene late cornified envelope 3D): 12.6 fold
LCE3E Fold Change (vaginal tissue construct; gene late cornified envelope 3E): 13.5 fold
LCE5A Fold Change (vaginal tissue construct; gene late cornified envelope 5A): 1.571 fold
LIPM Fold Change (vaginal tissue construct; gene lipase family member M): 6.813 fold
LIPN Fold Change (vaginal tissue construct; gene lipase family member N): 4.766 fold
LIPN1 Fold Change (vaginal tissue construct; gene lipin 1): 3.23 fold
LOR Fold Change (vaginal tissue construct; gene loricrin): 5.085 fold
LY6G6C Expr Fold Change (vaginal tissue construct; gene lymphocyte antigen 6 family member G6C): 5.531 fold
HLA-C Expr Fold Change (vaginal tissue construct; gene major histocompatibility complex, class C): −1.5 fold
HLA-B Expr Fold Change (vaginal tissue construct; gene major histocompatibility complex, class I, B): −1.677 fold
HLA-DRA Expr Fold Change (vaginal tissue construct; gene major histocompatibility complex, class II, DR alpha): −1.875 fold
HLA-DRB6 Expr Fold Change (vaginal tissue construct; gene major histocompatibility complex, class II, DR beta 6 (pseudogene)): −1.5 fold
ME1 Fold Change (vaginal tissue construct; gene malic enzyme 1, NADP(+)-dependent cytosolic): 2.4 fold
MUCL1 Fold Change (vaginal tissue construct; gene mucin like 1): 1.4 fold
NCR3LG1 Expr Fold Change (vaginal tissue construct; gene natural killer cell cytotoxicity receptor 3 ligand 1): 2.076 fold
NFAT5 Expr Fold Change (vaginal tissue construct; gene nuclear factor of activated T cells 5): 1.924 fold
OLFM4 Expr Fold Change (vaginal tissue construct; gene olfactomedin 4): −3.505 fold
PNLIPRP3 Fold Change (vaginal tissue construct; gene pancreatic lipase-related protein 3): 1.4 fold
PLA2G2F Fold Change (vaginal tissue construct; gene phospholipase A2 group IIF): 1.564 fold
PLA2G3 Fold Change (vaginal tissue construct; gene phospholipase A2 group III): 1.953 fold
PLA2G4D Fold Change (vaginal tissue construct; gene phospholipase A2 group IVD): 3.604 fold
PLA2G4E Fold Change (vaginal tissue construct; gene phospholipase A2 group IVE): 2.225 fold
PLA2G10 Fold Change (vaginal tissue construct; gene phospholipase A2 group X): −2.819 fold
PLAC8 Fold Change (vaginal tissue construct; gene placenta-specific 8): −2.2 fold
PIGR Fold Change (vaginal tissue construct; gene polymeric immunoglobulin receptor): −1.8 fold
PDCD1LG2 Expr Fold Change (vaginal tissue construct; gene programmed cell death 1 ligand 2): −1.879 fold
RPS15A Expr Fold Change (vaginal tissue construct; gene ribosomal protein S15a): −1.999 fold
SERPINB12 Fold Change (vaginal tissue construct; gene serpin family B member 12): 4.409 fold and 4.3 fold
STAT4 Expr Fold Change (vaginal tissue construct; gene signal transducer and activator of transcription 4): −2.315 fold
SPRR2G Fold Change (vaginal tissue construct; gene small proline rich protein 2G): 7.539 fold
SPRR4 Fold Change (vaginal tissue construct; gene small proline rich protein 4): 2.263 fold
SBSN Fold Change (vaginal tissue construct; gene suprabasin): 3.488 fold and 3.4 fold
TLR3 Expr Fold Change (vaginal tissue construct; gene toll like receptor 3): −2.566 fold
TRPV3 Fold Change (vaginal tissue construct; gene transient receptor potential cation channel subfamily V member 3): 2.32 fold and 2.382 fold
UBA7 Expr Fold Change (vaginal tissue construct; gene ubiquitin like modifier activating enzyme 7): −1.651 fold
VEGFA Fold Change (vaginal tissue construct; gene vascular endothelial growth factor A): 1.2 fold
mir-23 Expr Fold Change (vaginal tissue construct; microRNA 23a): 2.983 fold
mir-224 Expr Fold Change (vaginal tissue construct; microRNA 224): 4.867 fold
agonist type by receptor internalization [1]: full agonist
